# Measurements from PubChem BioAssay (NCI).
#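 Cells were grown in 96-well plates and exposed to each compound for 48 hours at five concentrations; endpoints were interpolated linearly between bracketing concentrations, or set to the highest concentration if not reached. Here, GI50 denotes the concentration required for 50% inhibition of growth. TGI: concentration producing complete growth inhibition.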
# Assays:
# Test in all cases: inhibition of tumour cell growth, NCI panel, 48 h
# CCRF-CEM leukemia = test system: CCRF-CEM leukemia
# HL-60(TB) leukemia = test system: HL-60(TB) leukemia
# KM12 colon = test system: KM12 colon
# RPMI-8226 leukemia = test system: RPMI-8226 leukemia
# SR leukemia = test system: SR leukemia
# SW-620 colon = test system: SW-620 colon
# MDA-MB-231 breast = test system: MDA-MB-231 breast
# SK-MEL-5 melanoma = test system: SK-MEL-5 melanoma
SMILES,TGI (CCRF-CEM leukemia),TGI (HL-60(TB) leukemia),TGI (KM12 colon),TGI (RPMI-8226 leukemia),TGI (SR leukemia),TGI (SW-620 colon),GI50 (CCRF-CEM leukemia),GI50 (HL-60(TB) leukemia),GI50 (KM12 colon),GI50 (MDA-MB-231 breast),TGI (MDA-MB-231 breast),GI50 (RPMI-8226 leukemia),GI50 (SK-MEL-5 melanoma),TGI (SK-MEL-5 melanoma),GI50 (SW-620 colon),GI50 (SR leukemia)
N#CC(c1ccc(Cl)cc1)c1cccc(Cl)n1 (centres undefined),> 100 µM,> 100 µM,> 100 µM,> 100 µM,> 100 µM,> 100 µM,,,,,,,,,,
Cc1ccc(-c2nc3nc(-c4ccc(Cl)cc4)nc(N4CCCNCC4)c3o2)cc1,2.91 µM,3.25 µM,3.81 µM,4.74 µM,,3.32 µM,0.7 µM,1.4 µM,1.93 µM,1.83 µM,3.37 µM,2.11 µM,1.82 µM,3.33 µM,1.7 µM,
Cn1c(Cc2ccccc2)nc2cc3ccccc3cc21,37.6 µM,,> 100 µM,34.3 µM,48.1 µM,38.3 µM,15 µM,,23.9 µM,16 µM,37.5 µM,13.1 µM,14.8 µM,29.1 µM,17.2 µM,18.1 µM
O=C(/C=C/C12c3ccccc3C(c3ccccc31)C1C(=O)NC(=O)C12)c1ccco1 (centres undefined),9.57 µM,4.89 µM,5.99 µM,4.21 µM,,7.22 µM,1.24 µM,1.58 µM,2.36 µM,3.85 µM,15.4 µM,1.1 µM,1.77 µM,3.28 µM,2.59 µM,
C/C(=C\c1ccn(-c2ccc(N)cc2C(F)(F)F)n1)[C@@H]1C[C@@H]2O[C@]2(C)CCC[C@H](C)[C@H](O)[C@@H](C)C(=O)C(C)(C)[C@@H](O)CC(=O)O1,> 11.1 µM,1.07 µM,> 11.1 µM,> 11.1 µM,,> 11.1 µM,0.413 µM,0.296 µM,0.254 µM,1.51 µM,> 11.1 µM,0.374 µM,0.356 µM,> 11.1 µM,0.301 µM,
COc1ccc2c(c1)C(=O)c1c-2c(N2CCN(C(=O)CN(C)C)CC2)nc2ccccc12,27.1 µM,52.4 µM,83.1 µM,28.6 µM,,26.3 µM,10.7 µM,20 µM,25.4 µM,13.3 µM,28.9 µM,10.7 µM,18.2 µM,34.6 µM,10.3 µM,
CCSc1nc(=S)[nH]c2[nH]ncc12,> 100 µM,> 100 µM,> 100 µM,> 100 µM,,> 100 µM,59 µM,> 100 µM,86.5 µM,> 100 µM,> 100 µM,> 100 µM,59.1 µM,> 100 µM,97.8 µM,
CCCN1C(=O)/C(=C/c2ccc(O)cc2)SC1=Nc1ccccc1,> 100 µM,> 100 µM,55.3 µM,,> 100 µM,> 100 µM,> 100 µM,> 100 µM,19.9 µM,16 µM,36.6 µM,,22.8 µM,46 µM,37.8 µM,14 µM
